The test system of test [1] is Staphylococcus aureus ATCC 700699 (MRSA). Put plainly: minimum inhibitory concentration; extreme values may be limits of the assay. In a few lines:
(§1)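 The minimum inhibitory concentration was defined as the lowest concentration whose well remained blue rather than becoming pink. It was measured against methicillin-susceptible and methicillin-resistant Staphylococcus aureus by broth microdilution in 96-well plates according to CLSI guidance, with compounds at 0 to 100 µM incubated for 24 h at 37°C before 30 µl of 0.015% resazurin was added for 2–4 h. Each plate included positive controls.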

Test [2] concerns Staphylococcus aureus ATCC 29213 (MSSA). The test is described as above. The procedure, abridged: as §1

Structures are written as SMILES. Values after ≈ are worked out from the molar mass of the structure shown.

With `COc1cccc(OC)c1C(=O)Nc1ccc(Cl)c(-c2nc3ccccc3s2)c1`, the minimum inhibitory concentration in test [1] and in test [2] was more than 50 µM throughout.

As to `FC(F)(F)c1ccc(N(c2cccnc2)C2CCN(c3ccc(C(F)(F)F)cn3)CC2)cc1`, the minimum inhibitory concentration in test [1] and in test [2] was more than 50 µM in each case.

As for `COc1ccc(Cn2cnc3c(-c4ccco4)nc(Cl)nc32)cc1`, the minimum inhibitory concentration in test [1] and in test [2] was more than 50 µM throughout.

With `Cc1cc(OCC(=O)Nc2ccc(C(C)C)cc2)n(C)c(=O)c1C#N`, the minimum inhibitory concentration in test [1] and in test [2] was more than 50 µM in each case.

As for `C[C@H]1c2cccc(O)c2C(=O)C2=C(O)[C@]3(O)C(=O)C(C(N)=O)=C(O)[C@@H](N(C)C)[C@@H]3[C@@H](O)[C@@H]21`, the results for the minimum inhibitory concentration in test [1] and in test [2] were 25 µM (≈ 11.1 µg/mL) and 0.781 µM (≈ 0.347 µg/mL), respectively.

As for `c1ccc2c(c1)CN(CC1CC1)CC1(CCN(Cc3c[nH]c4cnccc34)CC1)O2`, the minimum inhibitory concentration in test [1] and in test [2] was 50 µM (≈ 20.1 µg/mL) each time.

On to `Cn1ncc2c(N3CCOCC3)nc(NCCc3c[nH]c4ccccc34)nc21`, for which the minimum inhibitory concentration in test [1] and in test [2] was more than 50 µM in each case.

Regarding `CCCCc1ccc(C(=O)Nc2nccc3ccccc23)nc1`, the minimum inhibitory concentration in test [1] and in test [2] was more than 50 µM throughout.

With `Nc1nccc2ccc(Oc3ccncc3)cc12`, the minimum inhibitory concentration in test [1] and in test [2] was 50 µM (≈ 11.9 µg/mL) each time.

Take `Cc1nn(C(=O)Nc2cccc(C(F)(F)F)c2)c(C)c1Sc1ncccn1`: the minimum inhibitory concentration in test [1] and in test [2] was more than 50 µM each time.

In the case of `COc1cccc(OCC(=O)c2ccc(Br)cc2)c1`, the minimum inhibitory concentration in test [1] and in test [2] was more than 50 µM throughout.

For the molecule `Cc1ccc2[nH]c3c(NCCN(C)C)ncnc3c2c1`, the minimum inhibitory concentration in test [1] and in test [2] was more than 50 µM throughout.

With `CC(=O)NC[C@H]1CN(c2ccc(N3CCSCC3)c(F)c2)C(=O)O1`, the minimum inhibitory concentration in test [1] was 3.12 µM (≈ 1.1 µg/mL); in test [2], 6.25 µM (≈ 2.21 µg/mL).

For `CN1CCC(c2cc(-c3ccncc3)c(-c3ccc(F)cc3)[nH]2)CC1`, the minimum inhibitory concentration in test [1] and in test [2] was more than 50 µM throughout.

`CC(=O)Nc1ccc(-c2noc(CC3CCCN(Cc4cccc(F)c4C)C3)n2)cc1` (stereo not drawn): the minimum inhibitory concentration in test [1] and in test [2] was more than 50 µM in each case.

As for `O=C(Nc1ccc(N2CCNCC2)cc1)c1ccn2ncc(-c3cccc(Cl)c3)c2n1`, the minimum inhibitory concentration in test [1] and in test [2] was more than 50 µM each time.

As to `CCOC(=O)c1c(NC(=O)c2c(F)c(F)c(F)c(F)c2F)sc(C(N)=O)c1C`, the minimum inhibitory concentration in test [1] and in test [2] was more than 50 µM throughout.

Regarding `CCOc1ccc(OCC(=O)Nc2cc(C)cc(C)c2)cc1`, the minimum inhibitory concentration in test [1] and in test [2] was more than 50 µM in each case.

With `Cc1nnc(NCc2cccc(Cl)c2)c2ccccc12`, the minimum inhibitory concentration in test [1] and in test [2] was more than 50 µM in each case.
